We go through six molecules from patent publication US20250161312A1, “A METHOD FOR THE TREATMENT OF CHEMOTHERAPEUTIC DRUG-INDUCED NEPHROTOXICITY” (INSTITUT NATIONAL DE LA SANTÉ ET DE LA RECHERCHE MÉDICALE, priority 2022, published 2025).

For one data set, the target named is T1, A1 receptor (Rattus norvegicus, UniProt P25099).
T1 construct: host or cells: rodent (rat) in vivo models
T1 sequence (P25099 1-326): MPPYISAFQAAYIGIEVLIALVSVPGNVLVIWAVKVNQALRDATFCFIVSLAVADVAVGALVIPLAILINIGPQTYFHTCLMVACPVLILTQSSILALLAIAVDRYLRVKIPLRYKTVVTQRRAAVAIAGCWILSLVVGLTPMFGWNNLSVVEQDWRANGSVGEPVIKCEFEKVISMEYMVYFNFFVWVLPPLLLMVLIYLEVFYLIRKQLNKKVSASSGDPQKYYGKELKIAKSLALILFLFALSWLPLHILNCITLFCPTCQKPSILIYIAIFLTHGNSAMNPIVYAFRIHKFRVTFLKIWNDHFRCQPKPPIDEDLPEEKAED
The conditions noted are these: rodent models, blockade of A1 receptor; cited from earlier work.

The test system of the next data set is mouse model. Kind of data set: MSX-3 in cisplatin-induced kidney injury mouse model. Format: in vivo. The conditions noted are these: vs. cisplatin. An excerpt: FIG. 9. […] (A) BUN quantification. (B) Gene expression of the inflammatory marker Tnfa.
For data set [1] the following is noted: both in vitro and in vivo; cited from earlier work.
In another data set the test system is C57BL6/J mice. The experiment in a line: Sub-chronic cisplatin-induced kidney injury model. In kind it is in vivo. To be noted: cisplatin 3 mg/kg for six days. As for the experimental part:
FIG. 1. Schematic representation of the different animal procedures. (A) Acute cisplatin-induced kidney injury. […] (B) Sub-chronic cisplatin-induced kidney injury. […] (C) KW-6002 administration schedule in the acute model. […] (D) KW-6002 administration schedule in the sub-chronic model.
Animal experiments were adapted from 63-64. Animal procedures were performed in 8 to 10 weeks old male C57B16/J mice (Janvier Labs). Mice were fed a laboratory standard diet with water and food ad libitum and were kept under constant environmental conditions with a 12-hour light-dark cycle. Istradefylline (KW-6002; Tocris) was dissolved in a carrier solution consisting in 15% DMSO, 15% cremophor (Sigma), 70% saline solution (vehicle). Cisplatin (Accord Healthcare) was dissolved in saline solution. […] Three days after this single injection, animals were sacrificed by cervical dislocation (FIG. 1A).
Prior sacrifice by cervical dislocation, retro-orbital blood samples were collected in heparinized tubes and centrifuged for 10 min at 2000 rpm at room temperature. Renal function was assessed by Blood urea nitrogen (BUN) measurement using a AU480 Chemistry Analyzer (Beckman Coulter). At the time of sacrifice, kidneys or LLC1 tumors were harvested and stored in either “RNA later” solution (Thermo Fisher), 4% neutral buffered formalin or snap-frozen in liquid nitrogen.
Formalin-fixed and paraffin-embedded sections (3 μm thick) were stained with Hematoxylin and Eosin (Sigma Aldrich) or Periodic Acid-Schiff (Sigma-Aldrich). Slices were scored by a nephropathologist in a blinded manner. A kidney injury score grading scale from 0 to 5 was used to assess the severity of the injury as follow: 0=no lesions, 1=minimal injury characterized by occurrence of necrosis and debris; 2=mild injury with single cell necrosis, pyknotic cells, and apoptosis; 3=moderate injury characterized by tubular distension, vacuolation, and some cellular debris, 4=severe injury with occasional hyaline casts observed, patchy epithelial necrosis in all segments, loss of epithelial lining; and 5=very severe injury characterized by extensive tubular epithelial necrosis in all segments, loss of epithelial layer from many tubules widespread intraluminal cellular debris, and frequent hyaline casts particularly prominent in the medullary region (67).
Total RNA from kidney samples was extracted with phenol/chloroform and subsequently precipitated in isopropanol as described previously (71). Total RNA from cultured renal cells was extracted using RNeasy Mini kit (Qiagen) following manufacturer's recommendations.
Reverse transcription was performed on 1 μg of RNA using high-capacity cDNA reverse transcription kit (Thermo Fisher), according the manufacturer's recommendation. Real time PCR was performed on a StepOne device using Taqman Gene Expression Master Mix (Thermo Fisher), following manufacturer's recommendations. […]

For the next data set, the system named is kidney mouse sections. The experiment in a line: Red Oil staining of kidney mouse sections. Format: in vivo. The conditions noted are these: cisplatin alone. As for the experimental part:
FIG. 6. KW6002 alleviates the cisplatin-induced nephrotoxicity associated with apoptosis, lipid metabolism, and oxidative stress. (A) Tail moment assessed by comet assay; 50 cells/condition were analyzed. (B and C) KW6002 attenuates cisplatin-induced renal lipid accumulation, assessed by Red Oil staining. […] Results are the mean±SEM (n=6-9 mice/group). (F-H) KW6002 attenuated cisplatin-induced oxidative stress in RPTEC/hTERT1 cells. (F and G) Gene expression of Nrf2 (F) and HO1 (G). […] Results are the mean±SEM (n=3 independent experiments).
10 μm frozen kidney mouse sections were fixed with ethanol (60%) then incubated for 15 min with Oil Red O Solution (Fisher Biotech) dissolved in isopropanol. After several washes with ddH2O, samples were incubated 3 min with hematoxylin. Lipid droplets are stained in red whereas nuclei appeared blue. […] RPTEC/hTERT cells were fixed with ethanol (60%) then incubated for 15 min with Oil Red O Solution. The cells were washed three times with ddH2O and incubated 3 min with hematoxylin. Coverslips were rinsed with H2O before mounting on microscope slides using glycerol gelatin aqueous slide mounting medium (Sigma). Quantifications were performed blindly using ImageJ software. […] The resulting red color images were quantified using a custom threshold (0.173 for RPTEC/hTERT cells and 0.140 for kidney stainings).

The next data set has as its system kidney transcriptome. Kind of data set: RNA-Seq of kidney, sub-chronic protocol. Format: in vivo, mice. The conditions noted are these: adjusted p-value<0.01, log 2 fold change±1. As for the experimental part:
RNA-seq libraries (n=5-6/group) were generated from 500 ng of total RNA using Illumina® TruSeq® Stranded mRNA Library Prep Kit v2. Briefly, following purification with poly-T oligo attached magnetic beads, the mRNA was fragmented using divalent cations at 94° C. for 2 min. The cleaved RNA fragments were copied into first-strand cDNA using reverse transcriptase and random primers. Strand specificity was achieved by replacing dTTP with dUTP during the second-strand cDNA synthesis by DNA polymerase I and RNase H. Following the addition of a single “A” base and the subsequent ligation of the adapter on double-stranded cDNA fragments, the products were purified and enriched with PCR [30 s at 98° C.; (10 s at 98° C., 30 s at 60° C., 30 s at 72° C.)×12 cycles; 5 min at 72° C.] to create the cDNA library. Surplus PCR primers were further removed by purification using AMPure XP beads (Beckman Coulter), and the final cDNA libraries were checked for quality and quantified using capillary electrophoresis. Sequencing was performed on the Illumina® Genome Hiseq4000 as single-end 50 base reads following Illumina's instructions. Reads were mapped onto the mm 10 assembly of Mus musculus genome using STAR v2.5.3a (72). Only uniquely aligned reads were kept for further analyses. Quantification of gene expression was performed using HTSeq-count v0.6.1p1 (73) and gene annotations from Ensembl releases 90 and 102 and “union” mode. Read counts were normalized across libraries with the method proposed by Ander et al. (74). Comparisons of interest were performed using the test for differential expression proposed by Love et al. (75) and implemented in the DESeq2 Bioconductor library (v1.16.1). Resulting p-values were adjusted for multiple testing using the Benjamini and Hochberg method (76). RNA-sequencing was performed by Plateforme GenomEast, Institut de Génétique et de Biologie Moléculaire et Cellulaire, UMR 7104 CNRS-UdS/INSERM U964 (Illkirch, France). Sequencing data that support the findings of this study have been deposited in GEO with the primary accession code GSE179247. […]

With `CCCn1c(=O)c2[nH]c(C3CCCC3)nc2n(CCC)c1=O` [8-cyclopentyl-1,3-dipropylxanthine], the “protection against cisplatin nephrotoxicity” value (“protection” below) on A1 receptor is given as “protective against cisplatin nephrotoxicity”.
In the case of `CCCn1c(=O)c2[nH]c(C34CC5CC(CC3C5)C4)nc2n(CCC)c1=O` [KW-3902], on A1 receptor, the “protection” value was “protective against cisplatin nephrotoxicity”.
With `C#CCn1c(=O)c2c(nc(/C=C/c3cccc(OC)c3)n2C)n(CCCOP(=O)([O-])[O-])c1=O.[Na+].[Na+]` [MSX-3], the BUN result with mouse model (FIG. 9A) is listed as “significant reduction of BUN”. The “mRNA levels of Tnfα” value in the data set with mouse model (FIG. 9B) is listed as “lower mRNA levels of Tnfα”.
Consider `Cn1c(=O)c2c(ncn2C)n(C)c1=O` [caffeine], for which the “anti-tumoral effect of cisplatin” value in data set [1] is reported as “potentiate the anti-tumoral effect of cisplatin”.
For the molecule `N.N.[Cl][Pt][Cl]` [cisplatin, cis-diamminedichloroplatinum (II)], in the data set with C57BL6/J mice, the histological lesions result is listed as “severe histological lesions”, the “mRNA expression of Il6” value was “increased mRNA expression”, the “mRNA expression of Tnf” value was “increased mRNA expression” and the “mRNA levels of KIM-1” value is given as “significantly increased”. Moreover, in the data set on C57BL6/J mice, the “mRNA levels of NGAL” value is “significantly increased”. Also, in the data set with C57BL6/J mice (data not shown), the “blood urea nitrogen (BUN) levels” value was “increased blood urea nitrogen (BUN) levels”. Further, the “lipid droplets in kidney” value in the data set on kidney mouse sections was “induced an accumulation of lipid droplets”. For the same molecule, in the data set on kidney transcriptome, the “genes downregulated in kidney” value worked out at 2299 genes, the “genes upregulated in kidney” value is 2350 genes and the “genes whose expression is impacted in kidney” value came to 4649 genes.
For `CCCn1c(=O)c2nc(C34CCC(CCC(=O)O)(CC3)CC4)[nH]c2n(CCC)c1=O` [tonapofylline], the “protection” value on A1 receptor is reported as “protective against cisplatin nephrotoxicity”.
